Measured values reported in patent publication US9624229B2, “Pyrimidine-2-amine compounds and their use as inhibitors of JAK kinases” (Rigel Pharmaceuticals, Inc., priority 2008, dated 2017).

These compounds were tested against Ba/F3 V617F cells (Homo sapiens, UniProt O60674, V617F, cells depend on it) (assay: Proliferation assay (Cell Titer-Glo, 72 h) utilizing Ba/F3 V617F cells). Conditions: Ba/F3 V617F cells, proliferation, level of activity given as class symbol, read-out: IC50 (the source's name).
Chain of Ba/F3 V617F cells (O60674 whole entry V617F): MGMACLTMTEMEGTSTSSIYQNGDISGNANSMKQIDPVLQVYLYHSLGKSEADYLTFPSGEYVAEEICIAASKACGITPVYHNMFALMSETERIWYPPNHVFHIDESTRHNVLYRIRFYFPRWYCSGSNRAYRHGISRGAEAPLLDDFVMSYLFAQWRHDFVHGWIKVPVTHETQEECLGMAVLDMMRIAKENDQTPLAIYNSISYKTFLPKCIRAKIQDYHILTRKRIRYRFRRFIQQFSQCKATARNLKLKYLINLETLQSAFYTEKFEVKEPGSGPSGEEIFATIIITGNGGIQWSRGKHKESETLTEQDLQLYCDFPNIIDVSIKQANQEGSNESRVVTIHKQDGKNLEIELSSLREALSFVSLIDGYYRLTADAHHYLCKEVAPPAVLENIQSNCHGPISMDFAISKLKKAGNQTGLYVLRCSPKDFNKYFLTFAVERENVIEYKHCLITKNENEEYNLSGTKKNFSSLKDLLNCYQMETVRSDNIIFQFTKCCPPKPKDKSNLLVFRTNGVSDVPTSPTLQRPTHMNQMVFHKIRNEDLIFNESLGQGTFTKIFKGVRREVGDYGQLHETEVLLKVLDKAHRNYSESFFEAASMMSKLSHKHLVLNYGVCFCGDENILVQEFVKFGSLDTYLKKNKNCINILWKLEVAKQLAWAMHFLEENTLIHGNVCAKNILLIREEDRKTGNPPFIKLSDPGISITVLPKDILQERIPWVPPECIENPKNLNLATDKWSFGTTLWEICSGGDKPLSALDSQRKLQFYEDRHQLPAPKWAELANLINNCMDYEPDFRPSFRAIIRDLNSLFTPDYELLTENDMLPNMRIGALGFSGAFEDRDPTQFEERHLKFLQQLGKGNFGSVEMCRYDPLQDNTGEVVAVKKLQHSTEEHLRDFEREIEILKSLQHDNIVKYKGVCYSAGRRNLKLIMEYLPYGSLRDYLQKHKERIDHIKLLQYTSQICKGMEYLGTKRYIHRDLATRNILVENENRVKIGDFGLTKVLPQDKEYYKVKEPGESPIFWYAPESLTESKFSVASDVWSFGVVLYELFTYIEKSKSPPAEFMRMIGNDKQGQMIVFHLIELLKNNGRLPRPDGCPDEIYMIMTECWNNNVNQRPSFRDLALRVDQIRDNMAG
Assay type: cell-based, mouse
Protocol: Ba/F3 V617F cells are maintained and plated in RPMI with 10% FBS. Plating density for these cells is 1×10^5 cells/mL.
The cells were resuspended in a corresponding medium at a required cell density (see above). 100μ of cell suspension was added to each well of a flat bottom 96 well white plate. The compound was serially diluted in DMSO from 5 mM in 3-fold dilutions, and then diluted 1:250 in the RPMI 1640 medium containing 5% FBS and pen/strep. 100 μL of resulting 2× compound solution was added per well in duplicate and the cells were allowed to proliferate for 72 hours at 37° C.
Proliferation was measured using Cell Titer-Glo. The substrate was thawed and allowed to come to ambient temperature. After removal of top 100 μL of medium from each well, 100 μL of the premixed Cell Titer-Glo reagent was added to each well. The plates were mixed on an orbital shaker for three minutes to induce lysis and incubated at ambient temperature for an additional five minutes to allow the signal to equilibrate. The Luminescence was read on the Wallac Plate Reader.
The results of the ability of the compounds of the invention to inhibit JAK2 activity, when tested in the above assay utilizing Ba/F3 V617F cells, are shown in the following Tables 2-3 wherein the level of activity (i.e., the IC50) for each compound is indicated in Tables 2-3. The compound numbers in Tables 2-3 refers to the compounds disclosed herein as being prepared by the methods disclosed herein: […]
CCN1C[C@@H]2C[C@H]1CN2c1ccc(Nc2nccc(-c3ccc4c(ccn4-c4ccncc4)c3)n2)cc1C [compound 234, 4-(1-(pyridin-4-yl)-1H-indol-5-yl)-N-(3-methyl-4-((1S,4S)-5-ethyl-2,5-diazabicyclo[2.2.1]heptan-2-yl)phenyl)pyrimidin-2-amine] gave a GI50 of under 1 µM.
Cc1cc(Nc2nccc(-c3ccc(N4C[C@@H]5C[C@H]4CO5)nc3)n2)ccc1N1C[C@@H]2C[C@H]1CO2 [compound 216, 4-(6-((1S,4S)-5-oxa-2-azabicyclo[2.2.1]heptan-2-yl)pyridin-3-yl)-N-(3-methyl-4-((1S,4S)-5-oxa-2-azabicyclo[2.2.1]heptan-2-yl)phenyl)pyrimidin-2-amine] was tested, and the GI50 was under 1 µM.
Compound Cc1cc(Nc2nccc(-c3ccc(N4C[C@@H]5C[C@H]4CO5)nc3)n2)ccc1N1CCN2CCC1CC2 [compound 280, 4-(6-((1S,4S)-2-oxa-5-azabicyclo[2.2.1]heptan-5-yl)pyridin-3-yl)-N-(3-methyl-4-(1,4-diazabicyclo[3.2.2]nonan-4-yl)phenyl)pyrimidin-2-amine] has a GI50 of under 1 µM.
With CN1C[C@@H]2C[C@H]1CN2c1ccc(Nc2nccc(-c3ccc4c(c3)CCCC(=O)N4)n2)cc1C#N [compound 272, 4-(2-oxo-2,3,4,5-tetrahydro-1H-benzo[b]azepin-7-yl)-N-(3-cyano-4-((1S,4S)-5-methyl-2,5-diazabicyclo[2.2.1]heptan-2-yl)phenyl)pyrimidin-2-amine] the GI50 was under 1 µM.
For Cc1cc(Nc2nccc(-c3ccc(N4CCCC(C(N)=O)C4)nc3)n2)ccc1N1C[C@@H]2C[C@H]1CN2C (stereo partly drawn) [compound 191, 4-(6-(3-(aminocarbonyl)piperidin-1-yl)pyridin-3-yl)-N-(3-methyl-4-((1S,4S)-5-methyl-2,5-diazabicyclo[2.2.1]heptan-2-yl)phenyl)pyrimidin-2-amine], the GI50 was 1 to 10 µM.
In the case of CN1C[C@@H]2C[C@H]1CN2c1ccc(Nc2nccc(-c3ccc(N4CCOCC4)nc3)n2)cc1Cl [compound 255, 4-(6-(morpholin-4-yl)pyridin-3-yl)-N-(3-chloro-4-((1S,4S)-5-methyl-2,5-diazabicyclo[2.2.1]heptan-2-yl)phenyl)pyrimidin-2-amine], the GI50 is reported as under 1 µM.
Work on CN1C[C@@H]2C[C@H]1CN2c1ccc(Nc2nccc(-c3ccc4c(c3)SCC(=O)N4)n2)cc1 [compound 239, 4-(3-oxo-3,4-dihydro-2H-benzo[b][1,4]thiazin-7-yl)-N-(4-((1S,4S)-5-methyl-2,5-diazabicyclo[2.2.1]heptan-2-yl)phenyl)pyrimidin-2-amine] yielded a GI50 of under 1 µM.
COCCN(C)c1ccc(-c2ccnc(Nc3ccc(N4C[C@@H]5C[C@H]4CN5C)c(C)c3)n2)cn1 [compound 219, 4-(6-(2-methoxyethyl)(methyl)aminopyridin-3-yl)-N-(3-methyl-4-((1S,4S)-5-methyl-2,5-diazabicyclo[2.2.1]heptan-2-yl)phenyl)pyrimidin-2-amine] showed a GI50 of under 1 µM.
Compound CCCNc1ccc(-c2ccnc(Nc3ccc(N4C[C@@H]5C[C@H]4CN5S(C)(=O)=O)c(C)c3)n2)cn1 [compound 238, 4-(6-(propylamino)pyridin-3-yl)-N-(3-methyl-4-((1S,4S)-5-methylsulfonyl-2,5-diazabicyclo[2.2.1]heptan-2-yl)phenyl)pyrimidin-2-amine] has a GI50 of under 1 µM.

Same assay, conditions: Ba/F3 V617F cells, proliferation, level of activity to inhibit JAK2, read-out: IC50 (the source's name)
With CN1CC2(C)CN(c3ccc(Nc4nccc(-c5ccc(N(C)C)cc5)n4)cc3F)CC(C)(C1)C2 [compound 84, 4-(4-(dimethylamino)phenyl)-N-(3-fluoro-4-(1,5,7-trimethyl-3,7-diazabicyclo[3.3.1]nonan-3-yl)phenyl)pyrimidin-2-amine] the GI50 was under 1 µM.
Compound Cc1cc(Nc2nccc(-c3ccc(N4CCOCC4)nc3)n2)ccc1N1CC2CCC(C1)N2C [compound 166, 4-(6-(morpholin-4-yl)pyridin-3-yl)-N-(3-methyl-4-(8-methyl-3,8-diazabicyclo[3.2.1]octan-3-yl)phenyl)pyrimidin-2-amine] has a GI50 of under 1 µM.
CC(=O)Nc1ccc(-c2ccnc(Nc3ccc(N4CC5CCC(C4)N5C)cc3)n2)cc1 [compound 162, 4-(4-(acetamido)phenyl)-N-(4-(8-methyl-3,8-diazabicyclo[3.2.1]octan-3-yl)phenyl)pyrimidin-2-amine] was tested, and the GI50 was under 1 µM.
With Cc1cc(Nc2nccc(-c3cnc4c(c3)OC(C)(C)C(=O)N4C)n2)ccc1N1C[C@@H]2C[C@H]1CN2C [compound 125, 4-(2,2,4-trimethyl-3-oxo-3,4-dihydro-2H-pyrido[3,2-b][1,4]oxazin-7-yl)-N-(3-methyl-4-((1S,4S)-5-methyl-2,5-diazabicyclo[2.2.1]heptan-2-yl)phenyl)pyrimidin-2-amine] the GI50 was under 1 µM.
CN1C(=O)C(C)(C)Oc2cc(-c3ccnc(Nc4ccc(N5C[C@@H]6C[C@H]5CN6C)c(F)c4)n3)cnc21 [compound 126, 4-(2,2,4-trimethyl-3-oxo-3,4-dihydro-2H-pyrido[3,2-b][1,4]oxazin-7-yl)-N-(3-fluoro-4-((1S,4S)-5-methyl-2,5-diazabicyclo[2.2.1]heptan-2-yl)phenyl)pyrimidin-2-amine] showed a GI50 of under 1 µM.
Work on Cc1cc(Nc2nccc(-c3ccc(N4CCOCC4)nc3)n2)ccc1N1CCN2CCC1C2 (centres unmarked) [compound 120, 4-(6-(morpholin-4-yl)pyridin-3-yl)-N-(3-methyl-4-(1,4-diazabicyclo[3.2.1]octan-4-yl)phenyl)pyrimidin-2-amine] yielded a GI50 of under 1 µM.
CC(=O)N1C[C@@H]2C[C@H]1CN2c1ccc(Nc2nccc(-c3ccc(N4CCOCC4)nc3)n2)cc1C#N [compound 116, 4-(6-(morpholin-4-yl)pyridin-3-yl)-N-(3-cyano-4-((1S,4S)-5-acetyl-2,5-diazabicyclo[2.2.1]heptan-2-yl)phenyl)pyrimidin-2-amine] was tested, and the GI50 was under 1 µM.
With Cc1cc(Nc2nccc(-c3ccc(N4CCOCC4)nc3)n2)ccc1N1C2CCC1CC2 [compound 110, 4-(6-(morpholin-4-yl)pyridin-3-yl)-N-(3-methyl-4-(7-azabicyclo[2.2.1]heptan-7-yl)phenyl)pyrimidin-2-amine] the GI50 was 1 to 10 µM.
Cc1cc(Nc2nccc(-c3ccc(N4CCOCC4)nc3)n2)ccc1N1C[C@@H]2C[C@H]1CN2CC(F)(F)F [compound 36, 4-(6-(morpholin-4-yl)pyridin-3-yl)-N-(3-methyl-4-((1S,4S)-5-(2,2,2-trifluoroethyl)-2,5-diazabicyclo[2.2.1]heptan-2-yl)phenyl)pyrimidin-2-amine] showed a GI50 of 1 to 10 µM.
For CN1C[C@@H]2C[C@H]1CN2c1ccc(Nc2nccc(-c3cncc(S(C)(=O)=O)c3)n2)cc1C(F)(F)F [compound 102, 4-(5-(methyl)sulfonylpyridin-3-yl)-N-(3-trifluoromethyl-4-((1S,4S)-5-methyl-2,5-diazabicyclo[2.2.1]heptan-2-yl)phenyl)pyrimidin-2-amine], the GI50 was under 1 µM.
Cc1cc(Nc2nccc(-c3cnn(-c4ccc(F)cc4)c3)n2)ccc1N1C[C@@H]2C[C@H]1CN2C [compound 109, 4-(1-(4-fluorophenyl)-1H-pyrazol-4-yl)-N-(3-methyl-4-((1S,4S)-5-methyl-2,5-diazabicyclo[2.2.1]heptan-2-yl)phenyl)pyrimidin-2-amine] showed a GI50 of under 1 µM.
Compound CCC(=O)N1C[C@@H]2C[C@H]1CN2c1ccc(Nc2nccc(-c3ccc(NC(C)=O)nc3)n2)cc1C [compound 149, 4-(6-(acetamido)pyridin-3-yl)-N-(3-methyl-4-((1S,4S)-5-ethylcarbonyl-2,5-diazabicyclo[2.2.1]heptan-2-yl)phenyl)pyrimidin-2-amine] has a GI50 of under 1 µM.
For CN(C)c1ccc(-c2ccnc(Nc3ccc(N4C[C@@H]5C[C@H]4CN5C)c(C(F)(F)F)c3)n2)cn1 [compound 96, 4-(6-(dimethylamino)pyridin-3-yl)-N-(3-trifluoromethyl-4-((1S,4S)-5-methyl-2,5-diazabicyclo[2.2.1]heptan-2-yl)phenyl)pyrimidin-2-amine], the GI50 was under 1 µM.
For Cc1cc(Nc2nccc(-c3ccc(-c4ncc(-c5ccc(N(C)C)cc5)o4)cc3)n2)ccc1N1C[C@@H]2C[C@H]1CN2C [compound 104, 4-(4-(5-(4-dimethylaminophenyl)oxazol-2-yl)phenyl)-N-(3-methyl-4-((1S,4S)-5-methyl-2,5-diazabicyclo[2.2.1]heptan-2-yl)phenyl)pyrimidin-2-amine], the GI50 was 1 to 10 µM.
For CN(C)c1ccc(-c2ccnc(Nc3ccc(N4C[C@@H]5C[C@H]4CN5C)cc3)n2)cn1 [compound 183, 4-(6-(dimethylamino)pyridin-3-yl)-N-(4-((1S,4S)-5-methyl-2,5-diazabicyclo[2.2.1]heptan-2-yl)phenyl)pyrimidin-2-amine], the GI50 was under 1 µM.

Same assay, conditions: inhibition of JAK2 activity, proliferation of Ba/F3 V617F cells, read-out: IC50 (the source's name)
CN1C[C@@H]2C[C@H]1CN2c1ccc(Nc2nccc(-c3cnc(N4CCOCC4)cn3)n2)cn1 [compound 180, 4-(5-(morpholin-4-yl)pyrazin-2-yl)-N-(6-((1S,4S)-5-methyl-2,5-diazabicyclo[2.2.1]heptan-2-yl)pyridin-3-yl)pyrimidin-2-amine] showed a GI50 of 1 to 10 µM.
Cc1cc(Nc2nccc(-c3ccc(NS(C)(=O)=O)nc3)n2)cnc1N1C[C@@H]2C[C@H]1CN2C [compound 154, 4-(6-(methylsulfonylamino)pyridin-3-yl)-N-(5-methyl-6-((1S,4S)-5-methyl-2,5-diazabicyclo[2.2.1]heptan-2-yl)pyridin-3-yl)pyrimidin-2-amine] gave a GI50 of over 20 µM.
